According to patent publication US7011772B2, “UV absorbing mixture with textile fiber affinity” (BASF Aktiengesellschaft, priority 2000, dated 2006):

Key:
[1] = Photostability of dyed cotton fabric after conditioning rinse (SUNTEST exposure, K/S values); conditions: 200 ppm based on the liquor; 14 hours SUNTEST exposure under outdoor conditions; K/S at maximum of K/S spectra; higher = higher photostability
Description: Woven cotton fabric dyed with Reactive Black 5 to ⅓ standard depth of shade was treated in the conditioning rinse cycle with a commercially available formulation (Lenor® care, 1000 ppm based on the liquor) in the presence of an inventive UV absorber mixture M1, M2, M3, M4, M5, M6 or M7 (each at 200 ppm based on the liquor) in a liquor ratio of 12.5:1. After the conditioning rinse cycle, the dyed fabric was removed and tested for photostability in the dried state.
The samples were exposed in a SUNTEST® tabletop accelerated lighting unit (from Heraeus, Hanau) for 14 hours under outdoor conditions. A spectrophotometer incl. an integration sphere (“Lambda 900” from Perkin Elmer) was used to measure the reflectance spectra of dyeings before and after exposure. These reflectance spectra were converted in line with the Kubelka-Munk theory into K/S spectra (K=absorption coefficient, S=scattering coefficient). The photostabilities are evaluated with reference to the K/S values after 14 hour exposure relative to the K/S values prior to exposure (K/S in each case at the maximum of the K/S spectra). The higher the value in % reported in Table 2, the higher the photostability.

[2] = UV protection factor UPF of cotton fabric after laundry aftertreatment in final rinse bath; conditions: in Lenor care conditioner 1000 ppm, dried white cotton fabric, AS/NZS 4399:1996
Description: The UV protection factor UPF of textiles is determined in accordance with the Australian/New Zealand standard AS/NZS 4399:1996 using an in vitro method. It measures the UV transmission of the textile object. The spectral transmission can be used to determine the protection factor directly using the following equation: [formula] where • Sλ=spectral irradiation of the sun in the UV region at the wavelength λ • Eλ=spectral erythema action of the UV radiation at the wavelength λ • Tλ=spectral transmission of the textile object at the wavelength λ.
White woven cotton fabric having a basis weight of 100 g/mm^2 [sic] and a UV protection factor UPF of 4.50 was washed using a water hardness of 3 mmol/l. The laundering process was a main wash cycle at 40° C. with a commercially available laundry detergent (Ariel® Color) and a subsequent conditioning rinse. The conditioner used was a commercially available formulation (Lenor® care) in a dosage of 1000 ppm, based on the liquor. […] After the conditioning rinse cycle, the fabric was removed and its UV protection factor UPF was determined in the dried state.

CCCCC(CC)COC(=O)C(C#N)=C(c1ccccc1)c1ccccc1 (stereo not shown) [Mixture A1, 2-ethylhexyl 2-cyano-3,3-diphenylacrylate]
K/S (14 h)/K/S (0 h) × 100% [1]: 67.7% | UPF with 50 ppm ([2]; 50 ppm UV absorber based on the liquor): 8.6 | UPF with 100 ppm ([2]; 100 ppm UV absorber based on the liquor): 13.5 | UPF with 200 ppm ([2]; 200 ppm UV absorber based on the liquor): 21.1
